# Test results taken from the supplement of paper PMC10307832.
# Key:
# Experiment in all cases: relative viability (nuclei count vs DMSO), 5 days (fraction); higher = more cells survive
# [1] = tested on: BEN
# Method in brief: (§1)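 For relative viability, nuclei counts in treated wells were divided by those in vehicle wells. Lung cancer cell lines had been pin-tool dosed in 1536-well plates the day after seeding and cultured for 5 days, then fixed and stained in one step (final 0.05% Triton X-100, 1% formaldehyde, 1 ug/ml Hoechst) and imaged at 4×. Doses were one drug alone or a fixed anchor-drug dose plus five library-drug doses (not always all listed) in √10 steps, and values are duplicate-plate medians.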
# [2] = tested on: EKVX
# Method in brief: as §1
# [3] = tested on: HARA
# Method in brief: as §1
# [4] = tested on: HCC-366
# Method in brief: as §1
# [5] = tested on: HCC-827
# Method in brief: as §1
# [6] = tested on: LC-2-ad
# Method in brief: as §1
# [7] = tested on: LOU-NH91
# Method in brief: as §1
# [8] = tested on: NCI-H1355
# Method in brief: as §1
# [9] = tested on: NCI-H1395
# Method in brief: as §1
# [10] = tested on: NCI-H1437
# Method in brief: as §1
# [11] = tested on: NCI-H1734
# Method in brief: as §1
# [12] = tested on: NCI-H1792
# Method in brief: as §1
# [13] = tested on: NCI-H2009
# Method in brief: as §1
# [14] = tested on: NCI-H2087
# Method in brief: as §1
# [15] = tested on: NCI-H2170
# Method in brief: as §1
# [16] = tested on: NCI-H2228
# Method in brief: as §1
# [17] = tested on: NCI-H2405
# Method in brief: as §1
# [18] = tested on: NCI-H596
# Method in brief: as §1
# [19] = tested on: NCI-H647
# Method in brief: as §1
# [20] = tested on: NCI-H661
# Method in brief: as §1
# [21] = tested on: SK-LU-1
# Method in brief: as §1
# [22] = tested on: SK-MES-1
# Method in brief: as §1
smiles,measurement,setting,value
C=C1C(=O)O[C@@H](CCCCCCCC)[C@@H]1C(=O)O [C-75] + CS(=O)(=O)N1CCN(Cc2cc3nc(-c4cccc5[nH]ncc45)nc(N4CCOCC4)c3s2)CC1 [Pictilisib] (partner 1 µM),relative viability,[1]; first compound 0.08 µM,0.541
same,relative viability,[1]; first compound 0.253 µM,0.651
same,relative viability,[1]; first compound 0.8 µM,0.538
same,relative viability,[1]; first compound 2.53 µM,0.553
same,relative viability,[1]; first compound 8 µM,0.443
same,relative viability,[2]; first compound 0.08 µM,0.436
same,relative viability,[2]; first compound 0.253 µM,0.448
same,relative viability,[2]; first compound 0.8 µM,0.426
same,relative viability,[2]; first compound 2.53 µM,0.458
same,relative viability,[2]; first compound 8 µM,0.452
same,relative viability,[3]; first compound 0.08 µM,0.413
same,relative viability,[3]; first compound 0.253 µM,0.432
same,relative viability,[3]; first compound 0.8 µM,0.375
same,relative viability,[3]; first compound 8 µM,0.585
same,relative viability,[4]; first compound 0.08 µM,0.238
same,relative viability,[4]; first compound 0.253 µM,0.165
same,relative viability,[4]; first compound 0.8 µM,0.152
same,relative viability,[4]; first compound 2.53 µM,0.264
same,relative viability,[4]; first compound 8 µM,0.148
same,relative viability,[5]; first compound 0.08 µM,0.954
same,relative viability,[5]; first compound 0.253 µM,0.95
same,relative viability,[5]; first compound 0.8 µM,1.14
same,relative viability,[5]; first compound 2.53 µM,0.694
same,relative viability,[5]; first compound 8 µM,0.915
same,relative viability,[6]; first compound 0.08 µM,0.556
same,relative viability,[6]; first compound 0.253 µM,0.528
same,relative viability,[6]; first compound 0.8 µM,0.457
same,relative viability,[6]; first compound 8 µM,0.442
same,relative viability,[7]; first compound 0.08 µM,0.555
same,relative viability,[7]; first compound 0.253 µM,0.602
same,relative viability,[7]; first compound 0.8 µM,0.446
same,relative viability,[7]; first compound 2.53 µM,0.406
same,relative viability,[7]; first compound 8 µM,0.461
same,relative viability,[8]; first compound 0.08 µM,0.477
same,relative viability,[8]; first compound 0.253 µM,0.48
same,relative viability,[8]; first compound 0.8 µM,0.348
same,relative viability,[8]; first compound 2.53 µM,0.507
same,relative viability,[8]; first compound 8 µM,0.465
same,relative viability,[9]; first compound 0.08 µM,0.599
same,relative viability,[9]; first compound 0.253 µM,0.572
same,relative viability,[9]; first compound 0.8 µM,0.539
same,relative viability,[9]; first compound 2.53 µM,0.474
same,relative viability,[9]; first compound 8 µM,0.7
same,relative viability,[10]; first compound 0.08 µM,0.489
same,relative viability,[10]; first compound 0.253 µM,0.402
same,relative viability,[10]; first compound 0.8 µM,0.464
same,relative viability,[10]; first compound 2.53 µM,0.472
same,relative viability,[10]; first compound 8 µM,0.491
same,relative viability,[11]; first compound 0.08 µM,0.435
same,relative viability,[11]; first compound 0.253 µM,0.428
same,relative viability,[11]; first compound 0.8 µM,0.448
same,relative viability,[11]; first compound 2.53 µM,0.384
same,relative viability,[11]; first compound 8 µM,0.367
same,relative viability,[12]; first compound 0.08 µM,0.312
same,relative viability,[12]; first compound 0.253 µM,0.268
same,relative viability,[12]; first compound 0.8 µM,0.293
same,relative viability,[12]; first compound 2.53 µM,0.261
same,relative viability,[12]; first compound 8 µM,0.343
same,relative viability,[13]; first compound 0.08 µM,0.789
same,relative viability,[13]; first compound 0.253 µM,0.96
same,relative viability,[13]; first compound 0.8 µM,0.789
same,relative viability,[13]; first compound 2.53 µM,0.428
same,relative viability,[13]; first compound 8 µM,0.6
same,relative viability,[14]; first compound 0.08 µM,0.853
same,relative viability,[14]; first compound 0.253 µM,0.844
same,relative viability,[14]; first compound 0.8 µM,0.733
same,relative viability,[14]; first compound 2.53 µM,0.428
same,relative viability,[14]; first compound 8 µM,0.859
same,relative viability,[15]; first compound 0.08 µM,0.355
same,relative viability,[15]; first compound 0.253 µM,0.299
same,relative viability,[15]; first compound 0.8 µM,0.318
same,relative viability,[15]; first compound 2.53 µM,0.274
same,relative viability,[15]; first compound 8 µM,0.272
same,relative viability,[16]; first compound 0.08 µM,0.429
same,relative viability,[16]; first compound 0.253 µM,0.689
same,relative viability,[16]; first compound 0.8 µM,0.221
same,relative viability,[16]; first compound 2.53 µM,0.202
same,relative viability,[16]; first compound 8 µM,0.324
same,relative viability,[17]; first compound 0.08 µM,0.471
same,relative viability,[17]; first compound 0.253 µM,0.307
same,relative viability,[17]; first compound 0.8 µM,0.37
same,relative viability,[17]; first compound 2.53 µM,0.408
same,relative viability,[17]; first compound 8 µM,0.391
same,relative viability,[18]; first compound 0.08 µM,0.406
same,relative viability,[18]; first compound 0.253 µM,0.39
same,relative viability,[18]; first compound 0.8 µM,0.229
same,relative viability,[18]; first compound 2.53 µM,0.39
same,relative viability,[18]; first compound 8 µM,0.438
same,relative viability,[19]; first compound 0.08 µM,0.449
same,relative viability,[19]; first compound 0.253 µM,0.427
same,relative viability,[19]; first compound 2.53 µM,0.396
same,relative viability,[19]; first compound 8 µM,0.498
same,relative viability,[20]; first compound 0.08 µM,0.398
same,relative viability,[20]; first compound 0.253 µM,0.493
same,relative viability,[20]; first compound 0.8 µM,0.355
same,relative viability,[20]; first compound 2.53 µM,0.315
same,relative viability,[20]; first compound 8 µM,0.382
same,relative viability,[21]; first compound 0.08 µM,0.568
same,relative viability,[21]; first compound 0.253 µM,0.638
same,relative viability,[21]; first compound 0.8 µM,0.588
same,relative viability,[21]; first compound 2.53 µM,0.574
same,relative viability,[21]; first compound 8 µM,0.362
same,relative viability,[22]; first compound 0.08 µM,0.339
same,relative viability,[22]; first compound 0.253 µM,0.374
same,relative viability,[22]; first compound 0.8 µM,0.374
same,relative viability,[22]; first compound 2.53 µM,0.373
same,relative viability,[22]; first compound 8 µM,0.346
